Assay results as given in US8293772B2, “Triazole substituted aminobenzophenone compounds” (Leo Pharma A/S, priority 2004, dated 2012).

Experiments:
p38α MAP kinase = target: T1, p38α MAP kinase (Homo sapiens, UniProt Q16539); experiment: p38α MAP kinase assay (immunoprecipitated FLAG-p38α from COS-1 cells, GST-ATF-2 substrate); assay type: biochemical
T1 construct: made in house; host or cells: COS-1 cells (transient co-transfection), immunoprecipitated with anti-FLAG M2 on Protein G Sepharose
Procedure: COS-1 cells (derived from African green monkey kidney fibroblast-like cell containing wild-type T antigen under control of the SV40 promotor) were obtained from ATCC (ATCC no. CRL-1650) and grown in growth medium (DMEM without phenolred, 10% FCS, 2 mM L-glutamine, 100U penicillin and 100 μg streptomycin/ml) at 37° C. with 5% CO2. The cells were passaged twice a week by trypsination (0.25% trypsin, 1 mM EDTA in PBS) and were split 1:10. The medium was changed every second or third day. The cell line was regularly tested with the Mycoplasma PCR Primer Set (Stratagene) and found to be free of Mycoplasma. Tissue culture media, FCS, L-glutamine and penicillin and streptomycin are from Bribco BRL, Gaithersburg, Md., USA.
On day one COS-1 cells were seeded in 143 cm^2 petridish with a density of 2×10^4 celler/cm^2 in growth medium. At day 2 the cells were co-transfected with 5 μg (total) of experimental plasmid DNA, expressing the FLAG-p38α and FLAG-MKK6(EE). The plasmids were introduced into the COS-1 cells in serum-free medium using DOTAP™ (Boehringer-Mannheim, Mannheim, Germany). Plasmid DNA was prepared and purified using the QIAGEN EndoToxin-free Maxiprep-500 kit (Hilden, Germany). Briefly, DNA and DOTAP™ were mixed for exactly 15 min. at 37° C. in the CO2 incubator. […]

TNF-α [1] = experiment: Inhibition of TNF-α secretion in LPS stimulated peripheral blood mononuclear cells; assay type: cell-based; details: LPS stimulated human PBMC, 18 hours, ELISA; read-out: The median inhibition concentration (IC50, nM) of TNF-α
Procedure: (§1) To study the effect of compounds of the present invention in vitro, the inhibition of IL-1β and TNF-α secretion was determined using the following procedure:
(§2) Cytokine production was measured in the media from lipopolysaccharide (LPS) stimulated peripheral blood mononuclear cells. The mononuclear cells were isolated from human peripheral blood by Lymphoprep® (Nycomed, Norway) fractionation and suspended in RPMI 1640 (growth medium) with foetal calf serum (FCS, 2%), at a concentration of 5×10^5 cells/ml. The cells were incubated in 24-well tissue culture plates in 1 ml aliquots. Test compounds were dissolved in dimethylsulfoxide (DMSO, 10 mM) and were diluted with the medium. Compounds were added to the cells for 30 minutes, then LPS ([…] final concentration) was added. The plates were incubated for 18 hours, and the concentration of IL-1β and TNF-α in the medium was determined by enzyme-linked immunosorbent assays. The median inhibitory concentrations (IC50) of the compounds were calculated.

IL-1β = experiment: Inhibition of IL-1β secretion in LPS stimulated peripheral blood mononuclear cells; assay type: cell-based; details: LPS stimulated human PBMC, 18 hours, ELISA; read-out: The median inhibition concentration (IC50, nM) of IL-1β
Procedure: as §1, §2

TNF-α [2] = experiment: In vivo screening model of LPS induced TNF-α response in mice; details: Mus musculus, po, 1 mg/kg p.o., 1 hour prior to LPS, plasma TNF-α 80-90 minutes after LPS, read-out: In vivo inhibition of LPS induced TNF-α production (in %)
Procedure: In Vivo Screening Model of LPS Induced TNF-α Response in Mice
To study the effect of compounds of the present invention in vivo, an in vivo screening model of LPS induced TNF-α response in mice was set up as follows: Groups of 6 mice (C3H/HeN, female, about 8 weeks (20 g), Bomholtgaard) were dosed with test compounds in suspension vehicle 1 hour prior to LPS administration (LPS from E. coli 055:B5, L-4005, Sigma). At time 0, the mice were dosed ip with 1.0 mg LPS/kg. After anesthetization with Hypnorm/Dormicum, the mice were bled from the periorbital venous plexus 80-90 minutes after LPS administration. The blood samples were sampled in EDTA stabilised tubes and centrifuged at 4000 rpm for 10 minutes at 4° C. The plasma level of TNF-α was analysed by ELISA. Compound 156 of WO 98/32730 was used as reference compound. The plasma level of TNF-α was determined using a sandwich ELISA. Microtiter plates were coated with a monoclonal antibody against mouse TNF-α, washed and blocked with a casein buffer. Samples of mouse TNF-α recombinant standards were added to the wells of the microtiter plates and incubated. All standards were tested in triplicate, all plasma samples in single. After sample and standard incubation, the plates were washed and incubated with biotinylated polyclonal secondary antibody against mouse TNF-α and washed. Enzyme conjugate was added to all wells and incubated. Substrate was added and the enzyme/substrate reaction stopped after 15 minutes at room temperature with 1M H2SO4. The colour development (OD) was measured at 450 nm on an ELISA reader and the background OD at 620 nm was subtracted. […] The results of the tested compounds are indicated as a percentage inhibition compared to an LPS treated control group. Compounds were tested at 1 mg/kg (p.o.). The Mann-Whitney test was used to compare drug treated groups to the LPS treated control group (p<0.05).

TNF-α [3] = experiment: as above; details: Mus musculus, ip, tested at 10 mg/kg i.p., plasma TNF-α 80-90 minutes after LPS, read-out: In vivo inhibition of LPS induced TNF-α production (in %)

T1 sequence (Q16539 whole entry): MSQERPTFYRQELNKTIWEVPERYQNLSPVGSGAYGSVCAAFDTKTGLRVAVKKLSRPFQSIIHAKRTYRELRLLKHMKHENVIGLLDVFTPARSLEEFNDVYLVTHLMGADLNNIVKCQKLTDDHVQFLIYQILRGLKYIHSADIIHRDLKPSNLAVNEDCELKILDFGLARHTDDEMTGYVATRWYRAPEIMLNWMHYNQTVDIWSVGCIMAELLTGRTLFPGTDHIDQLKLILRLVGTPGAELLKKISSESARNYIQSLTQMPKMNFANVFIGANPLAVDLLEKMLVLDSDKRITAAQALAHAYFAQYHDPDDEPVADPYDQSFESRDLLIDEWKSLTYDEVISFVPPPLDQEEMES

Q: `Cc1ccc(-c2cn(CCO)nn2)cc1C(=O)c1ccc(Nc2ccc(F)cc2F)cc1Cl` [Compound 102, [2-Chloro-4-(2,4-difluoro-phenylamino)-phenyl]-{5-[1-(2-hydroxy-ethyl)-1H-[1,2,3]triazol-4-yl]-2-methyl-phenyl}-methanone] was tested. Which “p38 MAP kinase inhibition” value (p38α MAP kinase) did it give?
A: potent p38 MAP kinase inhibitor

Q: And the IC50 (TNF-α [1])?
A: 0.5 nM

Q: And the IC50 (IL-1β)?
A: 1.3 nM

Q: What about the inhibition in vivo at 1 mg/kg (TNF-α [2]) of the same molecule?
A: 94%

Q: With `Cc1ccc(-c2cn(CC(O)CO)nn2)cc1C(=O)c1ccc(Nc2ccc(F)cc2)cc1Cl` (centres unmarked) [Compound 124, [2-Chloro-4-(4-fluoro-phenylamino)-phenyl]-{5-[1-(2,3-dihydroxy-propyl)-1H-[1,2,3]triazol-4-yl]-2-methyl-phenyl}-methanone] as the molecule, how does the IC50 (TNF-α [1]) read?
A: 0.5 nM

Q: What about the IC50 (IL-1β) of the same molecule?
A: 0.8 nM

Q: What about the inhibition in vivo at 1 mg/kg (TNF-α [2]) of the same molecule?
A: 77%

Q: What does the source list for `Cc1ccc(-c2cn(CCCS(N)(=O)=O)nn2)cc1C(=O)c1ccc(Nc2ccc(F)cc2F)cc1Cl` [Compound 108, 3-(4-{3-[2-Chloro-4-(2,4-difluoro-phenylamino)-benzoyl]-4-methyl-phenyl}-[1,2,3]triazol-1-yl)-propane-1-sulfonic acid amide]?
A: IC50 (TNF-α [1]): 0.7 nM; IC50 (IL-1β): 1.3 nM; inhibition in vivo at 1 mg/kg (TNF-α [2]): 78%

Q: With `CCNC(=O)Cn1cc(-c2ccc(C)c(C(=O)c3ccc(Nc4ccc(F)cc4F)cc3Cl)c2)nn1` [Compound 112, 2-(4-{3-[2-Chloro-4-(2,4-difluoro-phenylamino)-benzoyl]-4-methyl-phenyl}-[1,2,3]triazol-1-yl)-N-ethyl-acetamide] as the molecule, how does the IC50 (TNF-α [1]) read?
A: 0.3 nM

Q: What about the IC50 (IL-1β) of the same molecule?
A: 5 nM

Q: What about the inhibition in vivo at 1 mg/kg (TNF-α [2]) of the same molecule?
A: 49%

Q: `Cc1ccc(-c2cn(CC(O)CO)nn2)cc1C(=O)c1ccc(Nc2ccc(F)cc2F)cc1Cl` (centres unmarked) [Compound 106, [2-Chloro-4-(2,4-difluoro-phenylamino)-phenyl]-{5-[1-(2,3-dihydroxy-propyl)-1H-[1,2,3]triazol-4-yl]-2-methyl-phenyl}-methanone] was tested. Which IC50 (TNF-α [1]) did it give?
A: 0.5 nM

Q: And the IC50 (IL-1β)?
A: 0.7 nM

Q: And the inhibition in vivo at 1 mg/kg (TNF-α [2])?
A: 98%

Q: How did the IC50 (TNF-α [1]) turn out when `Cc1ccc(-c2cn(CC(N)=O)nn2)cc1C(=O)c1ccc(Nc2ccc(F)cc2)cc1Cl` [Compound 125, 2-(4-{3-[2-Chloro-4-(4-fluoro-phenylamino)-benzoyl]-4-methyl-phenyl}-[1,2,3]triazol-1-yl)-acetamide] was run?
A: 0.5 nM

Q: What about the IC50 (IL-1β) of the same molecule?
A: 1 nM

Q: And the inhibition in vivo at 1 mg/kg (TNF-α [2])?
A: 96%

Q: With `Cc1ccc(-c2cn(CC(=O)N3CCOCC3)nn2)cc1C(=O)c1ccc(Nc2ccc(F)cc2F)cc1Cl` [Compound 115, 2-(4-{3-[2-Chloro-4-(2,4-difluoro-phenylamino)-benzoyl]-4-methyl-phenyl}-[1,2,3]triazol-1-yl)-1-morpholin-4-yl-ethanone] as the molecule, how does the IC50 (TNF-α [1]) read?
A: 0.5 nM

Q: And the IC50 (IL-1β)?
A: 0.5 nM

Q: What about the inhibition in vivo at 1 mg/kg (TNF-α [2]) of the same molecule?
A: 70%

Q: With `Cc1ccc(-c2cn(CC(=O)N3CCCC3)nn2)cc1C(=O)c1ccc(Nc2ccc(F)cc2F)cc1Cl` [Compound 114, 2-(4-{3-[2-Chloro-4-(2,4-difluoro-phenylamino)-benzoyl]-4-methyl-phenyl}-[1,2,3]triazol-1-yl)-1-pyrrolidin-1-yl-ethanone] as the molecule, how does the IC50 (TNF-α [1]) read?
A: 0.3 nM

Q: What about the IC50 (IL-1β) of the same molecule?
A: 0.4 nM

Q: What about the inhibition in vivo at 1 mg/kg (TNF-α [2]) of the same molecule?
A: 86%

Q: With `Cc1ccc(-c2cn(CCNS(C)(=O)=O)nn2)cc1C(=O)c1ccc(Nc2ccc(F)cc2F)cc1Cl` [Compound 109, N-[2-(4-{3-[2-Chloro-4-(2,4-difluoro-phenylamino)-benzoyl]-4-methyl-phenyl}-[1,2,3]triazol-1-yl)-ethyl]-methanesulfonamide] as the molecule, how does the IC50 (TNF-α [1]) read?
A: 1.2 nM

Q: What about the IC50 (IL-1β) of the same molecule?
A: 1.9 nM

Q: What about the inhibition in vivo at 1 mg/kg (TNF-α [2]) of the same molecule?
A: 79%

Q: For `Cc1ccccc1C(=O)c1ccc(Nc2ccccc2N)cc1Cl` [Ref. comp. a, 4-(2-aminophenylamino)-2-chloro-2′-methylbenzophenone], which inhibition in vivo at 10 mg/kg (TNF-α [3]) is on record?
A: 23%

Q: For `Cc1ccc(-n2cc(CCO)nn2)cc1C(=O)c1ccc(Nc2ccc(F)cc2)cc1Cl` [Compound 127, [2-Chloro-4-(4-fluoro-phenylamino)-phenyl]-{5-[4-(2-hydroxy-ethyl)-[1,2,3]triazol-1-yl]-2-methyl-phenyl}-methanone], which IC50 (TNF-α [1]) is on record?
A: 0.7 nM

Q: And the IC50 (IL-1β)?
A: 0.9 nM

Q: And the inhibition in vivo at 1 mg/kg (TNF-α [2])?
A: 94%
